Measurements taken from US20070172471A1, “Method for identifying an anti- streptococcal agent and its use for treating streptococcal infections” (Hansa Medical AB, priority 2003, published 2007).

What was measured:
TNF-stimulated PMNs = conditions: Loike et al., 1991; cited from earlier work
PMNs = conditions: Ruf and Patscheke, 1995; cited from earlier work
[1] = test system: S. pyogenes AP1 bacteria infected mice; format: in vivo, mouse; conditions: s.c. AP1 bacteria with 400 μg peptide, i.v. peptide after 30 min, lungs six hours after infection, scanning electron microscopy
[2] = test system: M1 protein-induced release of HBP from PMNs in human blood; conditions: M1 protein 1 μg/ml, 30 min 37° C., FIG. 2 and FIG. 5B
Method: HBP release. 100 μl human blood were diluted in PBS to a final volume of 1.0 ml and incubated with various PMNs-activating components for 30 min at 37° C. Cells were centrifuged (300×g for 15 min) and the supernatant was analyzed by sandwich ELISA. In order to quantify the total amount of HBP in blood, cells were lysed with 0.02% (v/v) Triton X-100, and pelleted as described above.

[3] = test system: mice of the C57BL/6 strain
[4] = test system: purified PMNs in a mixture of plasma and M1 protein; assay: M1 protein-induced PMN aggregation, scanning electron microscopy; format: cell-based, human
Method: Cell culture, neutrophil isolation, and stimulation of cells. Human PMNs were isolated from fresh heparinized blood of healthy volunteers using NIM, a single step density gradient medium, according to the instructions supplied by the manufacture. PMNs were counted with a hemocytometer, resuspended in MEM medium at 10^7 cells/ml and maintained on rotation in this medium at room temperature until use. All experiments on isolated PMNs were performed in Na-medium and initiated within 1 h of PMN isolation. Neutrophilic proteinase release was induced by PMN activation through antibody cross-linking of CD11 b/CD18 as described previously (Gautam et al., 2000, J. Exp. Med., 191, 1829-1839).
Scanning electron microscopy—Probes were gently applied to Millipore filters (Waters Corporation, Milford). Samples were then sucked down to the filters by a wet filter paper lying underneath. The filters were fixed in 2% (v/v) glutaraldehyde, 0.1 M sodium cacodylate, 0.1 M sucrose, pH 7.2 for 1 h at 4° C., and washed with 0.15 M cacodylate, pH 7.2. The filters were postfixed with 1% (w/v) osmium tetroxide, 0.15 M sodium cacodylate, pH 7.2, for 1 h at 4° C., washed, and stored in cacodylate buffer. […]

[5] = test system: thrombin-induced coagulation of normal plasma; assay: Clotting assay (thrombin clotting time); format: biochemical; conditions: human plasma, peptides 100 μg/ml, 15 min 37° C., FIG. 5A
Method: Clotting assay—The thrombin clotting time (TCT) was measured in a coagulometer (Amelung, Lemgo, Germany). Samples of 200 μl human citrate-treated plasma were incubated with 4 μl of peptide H-2395 or H-2940 (5 mg/ml) for 15 min at 37° C. Clotting was initiated by adding 100 μl of the TCT reagent (Sigma Chemicals, St. Louis, Mo.).

[6] = test system: thrombin-induced coagulation of normal plasma; conditions: Laudano and Doolittle, 1980; cited from earlier work
[7] = M1 protein 15 μg/animal with peptide 400 μg/animal i.v., 30 min

Substance: Gly-Pro-Arg-Pro (GPRP) [peptide derived from the NH2-terminal region of the Aα chain of fibrinogen, used as β2 integrin antagonist]
- adherence of TNF-stimulated PMNs to fibrinogen-coated surfaces (TNF-stimulated PMNs): block adherence
- platelet-induced activation of PMNs (PMNs): inhibited
- lung damage in infected mice [1]: much less affected
- effect on M1 protein-induced release of HBP [2]: blocked the mobilization of HT3P by M1 protein in a dose dependent manner
- M1 protein induced lung lesions (hemorrhage and tissue destruction), light microscopy [3, 7]: almost completely prevented
- M1 protein-caused lung damage, scanning electron microscopy [3, 7]: contained no precipitates
- ratio of lung area containing protein aggregates versus total lung area ([3]; M1 protein plus peptide i.v., six lung sections per animal, electron microscopy): 6±2%
- M1 protein-induced PMN aggregation [4]: inhibited the aggregation
- thrombin-induced coagulation / clotting time [5]: completely blocked thrombin-induced coagulation
- clot formation [6]: prevents clot formation
